Test results published in the NIST ThermoML archive (doi:10.1021/acs.jced.8b00975).
± gives the expanded uncertainty stated by the source.

Settings: Liquid, Vibrating tube method

| SMILES | mass density (293.15 K, 100 kPa) [kg/m3] | mass density (293.15 K, 5000 kPa) [kg/m3] | mass density (293.15 K, 10000 kPa) [kg/m3] | mass density (293.15 K, 15000 kPa) [kg/m3] | mass density (293.15 K, 20000 kPa) [kg/m3] | mass density (293.15 K, 25000 kPa) [kg/m3] | mass density (293.15 K, 30000 kPa) [kg/m3] | mass density (293.15 K, 35000 kPa) [kg/m3] | mass density (303.15 K, 100 kPa) [kg/m3] | mass density (303.15 K, 5000 kPa) [kg/m3] | mass density (303.15 K, 10000 kPa) [kg/m3] | mass density (303.15 K, 15000 kPa) [kg/m3] | mass density (303.15 K, 20000 kPa) [kg/m3] | mass density (303.15 K, 25000 kPa) [kg/m3] | mass density (303.15 K, 30000 kPa) [kg/m3] | mass density (303.15 K, 35000 kPa) [kg/m3] | mass density (313.15 K, 100 kPa) [kg/m3] | mass density (313.15 K, 5000 kPa) [kg/m3] | mass density (313.15 K, 10000 kPa) [kg/m3] | mass density (313.15 K, 15000 kPa) [kg/m3] | also measured |
| --- | --- | --- | --- | --- | --- | --- | --- | --- | --- | --- | --- | --- | --- | --- | --- | --- | --- | --- | --- | --- | --- |
| CCO [ethanol] | 788.94 ± 0.51 | 793.35 ± 0.52 | 797.51 ± 0.53 | 801.44 ± 0.54 | 805.18 ± 0.55 | 808.74 ± 0.57 | 812.17 ± 0.58 | 815.49 ± 0.6 | 780.83 ± 0.51 | 785.54 ± 0.52 | 789.89 ± 0.53 | 793.92 ± 0.54 | 797.7 ± 0.56 | 801.28 ± 0.57 | 804.72 ± 0.59 | 808.06 ± 0.6 | 772.04 ± 0.51 | 776.85 ± 0.52 | 781.35 ± 0.53 | 785.59 ± 0.55 | mass density (313.15 K, 20000 kPa): 789.62 ± 0.56 kg/m3; mass density (313.15 K, 25000 kPa): 793.47 ± 0.58 kg/m3; mass density (313.15 K, 30000 kPa): 797.2 ± 0.59 kg/m3; mass density (313.15 K, 35000 kPa): 800.84 ± 0.61 kg/m3 |
| C=C(C)C(=O)OCCN(C)C [2-(dimethylamino)ethyl methylpropenoate] | 933.13 ± 0.54 | 936.87 ± 0.55 | 940.43 ± 0.55 | 943.83 ± 0.55 | 947.11 ± 0.56 | 950.3 ± 0.56 | 953.43 ± 0.56 | 956.52 ± 0.57 | 923.03 ± 0.54 | 926.88 ± 0.55 | 930.61 ± 0.55 | 934.24 ± 0.56 | 937.79 ± 0.56 | 941.28 ± 0.56 | 944.74 ± 0.57 | 948.19 ± 0.57 | 914.01 ± 0.54 | 917.99 ± 0.55 | 921.97 ± 0.55 | 925.87 ± 0.56 | mass density (313.15 K, 20000 kPa): 929.71 ± 0.56 kg/m3; mass density (313.15 K, 25000 kPa): 933.48 ± 0.57 kg/m3; mass density (313.15 K, 30000 kPa): 937.2 ± 0.57 kg/m3; mass density (313.15 K, 35000 kPa): 940.87 ± 0.57 kg/m3 |
| CCCCO [butan-1-ol] | 809.28 ± 0.52 | 813.04 ± 0.52 | 816.54 ± 0.53 | 819.83 ± 0.55 | 822.97 ± 0.56 | 826 ± 0.57 | 828.99 ± 0.58 | 831.99 ± 0.6 | 801.9 ± 0.52 | 806 ± 0.53 | 809.77 ± 0.54 | 813.26 ± 0.55 | 816.52 ± 0.56 | 819.61 ± 0.57 | 822.58 ± 0.59 | 825.48 ± 0.6 | 794.32 ± 0.52 | 798.42 ± 0.53 | 802.22 ± 0.54 | 805.8 ± 0.55 | mass density (313.15 K, 20000 kPa): 809.2 ± 0.56 kg/m3; mass density (313.15 K, 25000 kPa): 812.49 ± 0.58 kg/m3; mass density (313.15 K, 30000 kPa): 815.73 ± 0.59 kg/m3; mass density (313.15 K, 35000 kPa): 818.97 ± 0.61 kg/m3 |
